Activity calls are given as the source filed them. No cut-off for these calls is given here.
Experiments:
[1] = test system: SW1990; experiment: Effect on Rad51 gene expression in human SW1990 cells at 1 uM in presence of Olaparib by Q-PCR analysis; type: functional, cell-based
[2] = test system: SW1990; experiment: Induction of cell cycle arrest in human SW1990 cells assessed as accumulation of cells at S phase at 4 uM incubated for 4 days by propidium iodide staining based flow cytometry (reference value: 29.32%); type: functional; conditions: time 4 day
[3] = Toxicity in nude mouse xenografted with human SW1990 cells assessed as lung damage at 15 mg/kg, ip administered for 28 days in presence of 45 mg/kg Olaparib by H and E staining based fluorescence microscopic analysis; type: organism-based; conditions: in vivo, 672 h, time 28 day
[4] = test system: SW1990; experiment: Induction of apoptosis in human SW1990 cells assessed as necrotic cells at 4 uM measured after 4 days by Annexin V-FITC/propidium iodide staining based flow cytometry (reference value: 2.45%); type: functional; conditions: time 4 day
[5] = test system: SW1990; experiment: Effect on FOXM1 gene expression in human SW1990 cells at 4 uM by Q-PCR analysis; type: functional, cell-based
[6] = test system: SW1990; experiment: Effect on CDC25A gene expression in human SW1990 cells at 1 uM in presence of Olaparib by Q-PCR analysis; type: functional, cell-based
[7] = test system: SW1990; experiment: Induction of apoptosis in human SW1990 cells assessed as late apoptotic cells at 1 uM measured after 4 days in presence of 3 uM Olaparib by Annexin V-FITC and propidium iodide staining based flow cytometry (reference value: 7.23%); type: functional; conditions: time 4 day
[8] = test system: SW1990; experiment: Effect on CCND1 gene expression in human SW1990 cells at 4 uM by Q-PCR analysis; type: functional, cell-based
[9] = test system: SW1990; experiment: Effect on BRCA1 gene expression in human SW1990 cells at 4 uM by Q-PCR analysis; type: functional, cell-based
[10] = test system: SW1990; experiment: Induction of DNA damage in human SW1990 cells assessed as increase in tail DNA at 1 uM incubated for 4 days in presence of 3 uM Olaparib by comet assay; type: functional, cell-based; conditions: time 4.0 day
[11] = Toxicity in nude mouse xenografted with human SW1990 cells assessed as liver damage at 15 mg/kg, ip administered for 28 days by H and E staining based fluorescence microscopic analysis; type: organism-based; conditions: in vivo, 672 h, time 28 day
[12] = test system: SW1990; experiment: Effect on CCNB1 gene expression in human SW1990 cells at 1 uM in presence of Olaparib by Q-PCR analysis; type: functional, cell-based
[13] = Toxicity in nude mouse xenografted with human SW1990 cells assessed as spleen damage at 15 mg/kg, ip administered for 28 days by H and E staining based fluorescence microscopic analysis; type: organism-based; conditions: in vivo, 672 h, time 28 day
[14] = test system: SW1990; experiment: Effect on MDC1 gene expression in human SW1990 cells at 6 uM by Q-PCR analysis; type: functional, cell-based
[15] = test system: SW1990; experiment: Upregulation of E2F2 expression in human SW1990 cells at 6 uM measured after 4 days by Western blot analysis; type: functional, cell-based; conditions: time 4.0 day
[16] = test system: SW1990; experiment: Upregulation of CDK6 expression in human SW1990 cells at 6 uM measured after 4 days by Western blot analysis; type: functional, cell-based; conditions: time 4.0 day
[17] = test system: SW1990; experiment: Effect on CDK6 gene expression in human SW1990 cells at 6 uM by Q-PCR analysis; type: functional, cell-based
[18] = test system: SW1990; experiment: Effect on TOPBP1 gene expression in human SW1990 cells at 6 uM by Q-PCR analysis; type: functional, cell-based
[19] = test system: SW1990; experiment: Effect on CDK1 gene expression in human SW1990 cells at 6 uM by Q-PCR analysis; type: functional, cell-based
[20] = test system: SW1990; experiment: Upregulation of PARP1 expression in human SW1990 cells at 6 uM measured after 4 days by Western blot analysis; type: functional, cell-based; conditions: time 4.0 day
[21] = test system: Mus musculus; experiment: Upregulation of CCND1 expression in nude mouse xenografted with human SW1990 cells at 45 mg/kg, ip measured after 4 days by Western blot analysis; type: functional, organism-based; conditions: time 4.0 day
[22] = Toxicity in nude mouse xenografted with human SW1990 cells assessed as heart damage at 45 mg/kg, ip administered for 28 days by H and E staining based fluorescence microscopic analysis; type: organism-based; conditions: in vivo, 672 h, time 28 day
[23] = test system: Mus musculus; experiment: Inhibition of CCND1 expression in nude mouse xenografted with human SW1990 cells at 30 mg/kg, ip measured after 4 days by Q-PCR analysis; type: functional, organism-based; conditions: time 4.0 day
[24] = test system: SW1990; experiment: Inhibition of CDK6 protein expression in human SW1990 cells at 1 to 2 uM measured after 4 days by Western blot analysis; type: functional, cell-based; conditions: dose 1-2 µM, time 4.0 day
[25] = test system: SW1990; experiment: Induction of cell cycle arrest in human SW1990 cells assessed as accumulation of cells at S phase at 1 uM incubated for 4 days by propidium iodide staining based flow cytometry (reference value: 29.32%); type: functional; conditions: time 4 day
[26] = test system: Mus musculus; experiment: Inhibition of PARP1 expression in nude mouse xenografted with human […] cells at 30 mg/kg, ip administered for 28 days by Q-PCR analysis; type: functional, organism-based; conditions: time 28.0 day
[27] = test system: Mus musculus; experiment: Inhibition of CCND1 expression in nude mouse xenografted with human SW1990 cells at 30 mg/kg, ip measured after 4 days by Western blot analysis; type: functional, organism-based; conditions: time 4.0 day
[28] = test system: SW1990; experiment: Effect on FOXO1 gene expression in human SW1990 cells at 1 to 2 uM by Q-PCR analysis; type: functional, cell-based; conditions: dose 1-2 µM
[29] = Toxicity in nude mouse xenografted with human SW1990 cells assessed as kidney damage at 30 mg/kg, ip administered for 28 days by H and E staining based fluorescence microscopic analysis; type: organism-based; conditions: in vivo, 672 h, time 28 day
[30] = test system: SW1990; experiment: Effect on BRCA1 gene expression in human SW1990 cells at 1 to 2 uM by Q-PCR analysis; type: functional, cell-based; conditions: dose 1-2 µM
[31] = test system: SW1990; experiment: Induction of DNA damage in human SW1990 cells assessed as increase in tail DNA at 1 to 2 uM incubated for 4 days by comet assay; type: functional, cell-based; conditions: dose 1-2 µM, time 4.0 day
[32] = test system: SW1990; experiment: Antitumor activity against human SW1990 cells xenografted in nude mouse assessed as reduction in tumor size at 30 mg/kg, ip administered for 28 days and measured every 3 days by vernier caliper method; type: functional, organism-based; conditions: time 28.0 day
[33] = test system: Mus musculus; experiment: Inhibition of CDC25B expression in nude mouse xenografted with human SW1990 cells at 30 mg/kg, ip measured after 4 days by Q-PCR analysis; type: functional, organism-based; conditions: time 4.0 day
[34] = test system: Mus musculus; experiment: Inhibition of E2F2 expression in nude mouse xenografted with human SW1990 cells at 30 mg/kg, ip measured after 4 days by Western blot analysis; type: functional, organism-based; conditions: time 4.0 day
[35] = test system: SW1990; experiment: Downregulation of Ki67 expression in human SW1990 cells at 30 mg/kg, ip measured after 28 days by immuno histochemical staining based fluorescence microscopic analysis; type: functional, organism-based; conditions: time 28.0 day
[36] = test system: SW1990; experiment: Inhibition of homologous recombinant repair in human SW1990 cells assessed as reversal of Olaparib-induced HEXIM1 expression at 1 to 2 uM after 4 days by Western blot analysis; type: functional, cell-based; conditions: dose 1-2 µM, time 4.0 day
[37] = test system: SW1990; experiment: Inhibition of homologous recombinant repair in human SW1990 cells assessed as reversal of Olaparib-induced TOPBP1 expression at 1 to 2 uM after 4 days by Western blot analysis; type: functional, cell-based; conditions: dose 1-2 µM, time 4.0 day
[38] = test system: SW1990; experiment: Downregulation of BRD4 expression in human SW1990 cells at 2 uM measured after 4 days by Western blot analysis; type: functional, cell-based; conditions: time 4.0 day
[39] = test system: SW1990; experiment: Inhibition of CDK1 protein expression in human SW1990 cells at 1 to 2 uM measured after 4 days by Western blot analysis; type: functional, cell-based; conditions: dose 1-2 µM, time 4.0 day
[40] = test system: SW1990; experiment: Effect on FOXM1 gene expression in human SW1990 cells at 1 to 2 uM by Q-PCR analysis; type: functional, cell-based; conditions: dose 1-2 µM

In the case of Cc1sc2c(c1C)C(c1ccc(Cl)cc1)=N[C@@H](CC(=O)OC(C)(C)C)c1nnc(C)n1-2, the Activity [1] was “Active”, the Activity [2] was 19.43% and the Activity [3] was “Non-Toxic”. For the same compound, the Activity [4] was 3.35%, the Activity [5] was “Active” and the Activity [6] was “Active”. The Activity [7] was 34.5%, the Activity [8] was “Active” and the Activity [9] was “Active”. For the same compound, the Activity [10] was “Active”, the Activity [11] was “Non-Toxic” and the Activity [12] was “Active”. The Activity [13] was “Non-Toxic”.
In the case of O=C(c1cc(Cc2n[nH]c(=O)c3ccccc23)ccc1F)N1CCN(C(=O)C2CC2)CC1 [OLAPARIB], the Activity [14] was “Active”, the Activity [15] was “Active” and the Activity [16] was “Active”. For the same compound, the Activity [17] was “Active”, the Activity [18] was “Active” and the Activity [19] was “Active”. For the same compound, the Activity [20] was “Active”, the Activity [21] was “Active” and the Activity [22] was “Non-Toxic”.
In the case of Cc1noc(C)c1-c1ccc2c(c1)C(c1ccccc1)N(Cc1nc3c(C(N)=O)cccc3[nH]1)C(=O)N2C (stereo not given), the inhibition [23] was “Active”, the inhibition [24] was “Active” and the Activity [25] was 14.98%. For the same compound, the inhibition [26] was “Active”, the inhibition [27] was “Active” and the Activity [28] was “Active”. The Activity [29] was “Non-Toxic”, the Activity [30] was “Active” and the Activity [31] was “Active”. For the same compound, the Activity [32] was “Active”, the inhibition [33] was “Active” and the inhibition [34] was “Active”. For the same compound, the Activity [35] was “Active”, the inhibition [36] was “Active” and the inhibition [37] was “Active”. The Activity [38] was “Active”, the inhibition [39] was “Active” and the Activity [40] was “Active”.
